Experimental data reported in patent US7695908B2, “Methods for predicting methotrexate polyglutamate levels using pharmacogenetics” (Prometheus Laboratories Inc., priority 2004, dated 2010).

Assay: HPLC quantification of red blood cell MTXPG concentrations in rheumatoid arthritis patients on low-dose MTX therapy, with regression on age, dose, route and RFC-1/GGH genotype
Type: in vivo, human
Conditions: multivariate linear regression, route p<0.04
Protocol: The study was cross-sectional at three investigational sites (The Center of Rheumatology, Albany, N.Y.; Rheumatology Practice, Knoxville, Tenn.; Radiant Research, Daytona Beach, Fla.). To be eligible, patients (≧18 yrs.) had to meet the revised criteria of the American Rheumatism Association for Rheumatoid Arthritis and had to have received low-dose MTX therapy for at least three months. Other medications included low-dose corticosteroids (<10 mg day) and folic acid supplementation for the prevention of side-effects induced by MTX. Local Institutional Review Board approved the study and patient consent was obtained for each patient. Patients' demographics were collected at the time of enrollment in the study. Blood was drawn in EDTA-containing tubes and shipped overnight to Prometheus Laboratories Inc. (San Diego, Calif.) for analysis.
Red blood cell MTXPG concentrations were measured as described previously using an HPLC-fluorometry procedure with a post-column photo-oxidation technique (Dervieux et al., Clin. Chem., 49:1632-1641 (2003)). Results are expressed in nmol/L as either total MTXPG1-5 levels or total long-chain MTXG3-5 levels (i.e., the sum of MTXP3+MTXPG4+MTXPG5 levels).
The statistical analysis consisted of a multivariate linear or logistic regression, with MTXPG levels (i.e., MTXPG1-5, MTXPG3-5) as dependent variables and predictors (i.e., age, weekly MTX dose, route of administration, and RFC-1 and GGH genotypes) as independent variables. For calculating a pharmacogenetic index, the genotypes were dichotomized as homozygous mutants (RFC-1 80A/A and GGH −401T/T; value of 1) versus wild-type or heterozygous (RFC-1 80G/G or 80G/A and GGH −401C/C or −401C/T; value of 0) as appropriate. Group comparisons were performed with the Kruskall-Wallis ANOVA. The likelihood of having MTXPG levels above group median was derived from the logistic regression model. Odds ratio (OR) and probability (P) are given with a 95% confidence interval (CI). Estimates are given with standard error.

SMILES | RBC MTXPG levels after injected MTX compared to oral administration
CN(Cc1cnc2nc(N)nc(N)c2n1)c1ccc(C(=O)N[C@@H](CCC(=O)O)C(=O)O)cc1 [MTX, methotrexate] | higher MTXPG levels

Same assay, conditions: unadjusted, Kruskall-Wallis; FIG. 3

SMILES | Change of RBC level with increased pharmacogenetic index (PI, from −1 to 1)
CN(Cc1cnc2nc(N)nc(N)c2n1)c1ccc(C(=O)N[C@@H](CCC(=O)O)C(=O)O)cc1 [MTX, methotrexate] | no significant differences
CN(Cc1cnc2nc(N)nc(N)c2n1)c1ccc(C(=O)NC(CCC(=O)NC(CCC(=O)O)C(=O)O)C(=O)O)cc1 (stereo not drawn) [MTXPG2] | no significant differences
CN(Cc1cnc2nc(N)nc(N)c2n1)c1ccc(C(=O)NC(CCC(=O)NC(CCC(=O)NC(CCC(=O)NC(CCC(=O)NC(CCC(=O)O)C(=O)O)C(=O)O)C(=O)O)C(=O)O)C(=O)O)cc1 (stereo not drawn) [MTXPG5] | increased

The remaining lines, values ahead:

Change of RBC level with increased pharmacogenetic index (PI, from −1 to 1) | SMILES
increased | CN(Cc1cnc2nc(N)nc(N)c2n1)c1ccc(C(=O)N[C@@H](CCC(=O)N[C@@H](CCC(=O)N[C@@H](CCC(=O)O)C(=O)O)C(=O)O)C(=O)O)cc1 [MTXPG3]
increased | CN(Cc1cnc2nc(N)nc(N)c2n1)c1ccc(C(=O)N[C@@H](CCC(=O)N[C@@H](CCC(=O)N[C@@H](CCC(=O)N[C@@H](CCC(=O)O)C(=O)O)C(=O)O)C(=O)O)C(=O)O)cc1 [MTXPG4]
